This is an account of results in paper PMC7440915, “Discovery of surrogate agonists for visceral fat Treg cells that modulate metabolic indices in vivo” (eLife, 2020).

Entries after “also recorded” stand apart in the source; their conditions may differ. Where no end group is shown, it is not given here.

The experiment has as its system vTreg53 Treg cells. The experiment in a line: RNA-seq of transferred clonotype^+ Treg cells after immunization. It counts as in vivo, mouse. The source says: Figure 5. Transcriptional analyses of vTreg53 Treg cells stimulated by Fat1562 in vivo. (A–C) CD45.2^+ vTreg53 Treg cells were transferred i.v. into CD45.1^+ B6 mice. 6 weeks later, the recipient mice were immunized with CFA alone or CFA/Fat1562 s.c., and one week later, boosted with IFA alone or IFA/Fat1562 i.p. CD45.2^+ clonotype^+ Treg cells were sorted from Spl/LNs or VAT of the recipient mice one week later for RNA-Seq. (A) Volcano plot comparing gene expression of transferred clonotype^+ Treg cells in the VAT and Spl/LNs of recipient mice immunized with adjuvant alone (left) or with adjuvant/Fat1562 (right). VAT-Treg signature genes are highlighted in red (induced) or blue (repressed). The number of genes from each signature preferentially expressed by one or the other population are shown at the top. (B) GSEA analysis of top KEGG pathways (p<0.05) that are enriched in cells activated by adjuvant/Fat1562 compared with adjuvant alone in VAT (left) or Spl/LN (right). NES, normalized enrichment score. FDR, false discovery rate. (C) Normalized reads of Pparg transcript in CD45.2^+ clonotype^+ Treg cells sorted from mice immunized with adjuvant alone or adjuvant/Fat1562. Data are mean ± SD. (D) Volcano plot comparing gene expression of transferred clonotype^+ Treg cells in mice immunized with adjuvant/Fat1562 and adjuvant alone in the VAT (left) and spleen (right). Representative transcripts are highlighted.
6–8 week-old B6.CD45.1^+ mice were transferred with Tg^+ Treg cells from Spl/LNs, and six weeks later were primed with 200 μg CFA/peptides s.c. and boosted with 100 μg IFA/peptides i.p. as described in the ‘Treg transfer and peptide immunization’ section. Biological replicates (n ≥ 2) of 1000 clonotype^+ CD45.2^+ Treg cells from the Spl/LNs or VAT of recipient mice were double-sorted by Moflo directly into 5ɥl lysis buffer (TCL Buffer (Qiagen) with 1% 2-Mercaptoethanol), Smart-seq2 libraries were prepared as previously described ([Picelli et al., 2014]) with slight modifications. Briefly, total RNA was captured and purified on RNAClean XP beads (Beckman Coulter). Polyadenylated mRNA was then selected using an anchored oligo(dT) primer (5′–[…]30VN-3) and converted to cDNA via reverse transcription. First-strand cDNA was subjected to limited PCR amplification followed by Tn5 transposon-based fragmentation using the Nextera XT DNA Library Preparation Kit (Illumina). Samples were then PCR amplified for 18 cycles using barcoded primers such that each sample carried a specific combination of eight-base Illumina P5 and P7 barcodes and were pooled together prior to Smart sequencing. Smart-seq paired-end sequencing was performed on an Illumina NextSeq500 using 2 × 38 bp reads with no further trimming. Transcripts were quantified by the Broad Technology Labs computational pipeline with Cuffquant version 2.2.1 ([Trapnell et al., 2012]). Normalized reads were further filtered by minimal expression (>10) and coefficient of variation (<0.7), and then analyzed by Multiplot Studio in the GenePattern software package. Pathway enrichment analysis was done using GSEA.

On to TMYKNPRPMAATG [Fat1562], for which, for the setting “Spl/LN vs Fat1562-stimulated VAT Treg cells”, the “Pparg mRNA levels in Spl/LN relative to VAT” value is “substantially lower”. For the same sequence, the “Pparg mRNA levels” value (Treg cells stimulated by Fat1562 in vivo (Spl/LN)) is reported as “significantly increased; also recorded: increase in Pparg mRNA levels”. In addition, the “Lag3 and Tigit expression” value (VAT, adjuvant/Fat1562 vs adjuvant alone) is recorded as “upregulated”. Moreover, the “pathway enrichment in VAT Treg cells, GSEA” value (VAT, adjuvant/Fat1562 vs adjuvant alone: cell division and glycolysis) is “significant enrichment in pathways and transcripts related to cell division (E2F targets, G2M checkpoint, MYC targets, Mitotic spindle) and glycolysis”. In addition, the “VAT-Treg signature gene expression” value (clonotype^+ VAT Treg cells, adjuvant/Fat1562) is given as “preserved the typical VAT-Treg characteristics; also recorded: maintained the typical VAT-Treg signature”. For the same sequence, the “cholesterol homeostasis genes” value (lymphoid organs, adjuvant/Fat1562 vs adjuvant alone (e.g. Pparg, Nfil3, Srebf2)) was “enrichment of genes involved in cholesterol homeostasis”. For the same sequence, the “inflammatory cytokine response genes” value (lymphoid organs, adjuvant/Fat1562 vs adjuvant alone, IFNα, IFNγ, TNFα) was “increased expression of genes associated with responses to inflammatory cytokines (IFNα, IFNγ, and TNFα)”.
